From PMC7180638, “Synthesis of Pyrrolidine Monocyclic Analogues of Pochonicine and Its Stereoisomers: Pursuit of Simplified Structures and Potent β-N-Acetylhexosaminidase Inhibition” (Molecules, 2020)
Structures can show the parent of a compound that is named as a salt. Where two headings read alike, the source gives them in different places.

Columns and labels:
Format in all cases: biochemical
Rat intestinal maltase = Rat intestinal maltase inhibition; conditions: α-Glucosidase
Method: (§1) With rat intestinal maltase as an exception, other enzymes were purchased from Sigma-Aldrich Chemical Co. (St. Louis, MO, USA). Brush border membranes prepared from rat small intestine according to the method of Kessler et al. were assayed at pH 6.8 for rat intestinal maltase using maltose. The released D-glucose was determined colorimetrically using the Glucose CII-test Wako (Wako Pure Chemical Ind.; Osaka, Japan). Other glycosidase activities were determined using an appropriate p-nitrophenyl glycoside as substrate in a buffer solution at the optimal pH value of each enzyme. The reaction was stopped by adding 400 mM Na2CO3. The released p-nitrophenol was measured spectrometrically at 400 nm.

β-Glucosidase (Almond) = assay: β-Glucosidase (almond) inhibition
Method: as §1

[1] = molecular target: β-Glucosidase (Bovine liver); assay: β-Glucosidase (bovine liver) inhibition
Method: as §1

[2] = molecular target: T1, α-Galactosidase (Coffee beans) (Coffea arabica, UniProt Q42656); assay: α-Galactosidase (coffee beans) inhibition
T1 construct: purchased Sigma-Aldrich Chemical Co
T1 sequence (Q42656 16-378): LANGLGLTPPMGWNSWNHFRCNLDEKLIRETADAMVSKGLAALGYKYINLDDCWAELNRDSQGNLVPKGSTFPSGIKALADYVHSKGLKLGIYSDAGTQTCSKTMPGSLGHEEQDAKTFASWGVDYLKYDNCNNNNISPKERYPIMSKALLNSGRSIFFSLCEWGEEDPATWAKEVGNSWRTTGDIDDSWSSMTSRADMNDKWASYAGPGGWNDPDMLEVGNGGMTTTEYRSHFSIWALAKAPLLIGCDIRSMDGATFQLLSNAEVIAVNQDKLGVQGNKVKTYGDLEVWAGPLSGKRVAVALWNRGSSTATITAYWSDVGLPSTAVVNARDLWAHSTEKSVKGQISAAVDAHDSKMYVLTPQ
Method: as §1

β-Mannosidase (Snail) = assay: β-Mannosidase (snail) inhibition
Method: as §1

[3] = molecular target: T2, α-L-Fucosidase (Bovine kidney) (Bos taurus, UniProt Q2KIM0); assay: α-L-Fucosidase (bovine kidney) inhibition
T2 construct: purchased Sigma-Aldrich Chemical Co; host or cells: bovine kidney
T2 sequence (Q2KIM0 23-468): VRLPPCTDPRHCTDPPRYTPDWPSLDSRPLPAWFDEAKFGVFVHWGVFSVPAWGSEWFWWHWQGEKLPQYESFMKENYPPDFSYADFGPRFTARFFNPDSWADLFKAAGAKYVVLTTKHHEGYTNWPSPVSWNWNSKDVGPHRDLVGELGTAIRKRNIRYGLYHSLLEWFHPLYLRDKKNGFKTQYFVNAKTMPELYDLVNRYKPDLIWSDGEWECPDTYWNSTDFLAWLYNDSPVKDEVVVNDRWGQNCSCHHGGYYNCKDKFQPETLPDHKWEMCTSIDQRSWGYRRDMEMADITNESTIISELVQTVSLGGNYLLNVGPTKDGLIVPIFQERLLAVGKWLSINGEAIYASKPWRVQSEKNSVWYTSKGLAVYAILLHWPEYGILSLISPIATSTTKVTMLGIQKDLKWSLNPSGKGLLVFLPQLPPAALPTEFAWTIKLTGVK
Method: as §1

[4] = molecular target: α-L-Rhamnosidase (P. decumbens); assay: α-L-Rhamnosidase (P. decumbens) inhibition
Method: as §1

[5] = molecular target: T3, β-Glucuronidase (Bovine liver) (Bos taurus, UniProt A3KMY8); assay: β-Glucuronidase (bovine liver) inhibition
T3 construct: purchased Sigma-Aldrich Chemical Co; host or cells: bovine liver
T3 sequence (A3KMY8 1-652): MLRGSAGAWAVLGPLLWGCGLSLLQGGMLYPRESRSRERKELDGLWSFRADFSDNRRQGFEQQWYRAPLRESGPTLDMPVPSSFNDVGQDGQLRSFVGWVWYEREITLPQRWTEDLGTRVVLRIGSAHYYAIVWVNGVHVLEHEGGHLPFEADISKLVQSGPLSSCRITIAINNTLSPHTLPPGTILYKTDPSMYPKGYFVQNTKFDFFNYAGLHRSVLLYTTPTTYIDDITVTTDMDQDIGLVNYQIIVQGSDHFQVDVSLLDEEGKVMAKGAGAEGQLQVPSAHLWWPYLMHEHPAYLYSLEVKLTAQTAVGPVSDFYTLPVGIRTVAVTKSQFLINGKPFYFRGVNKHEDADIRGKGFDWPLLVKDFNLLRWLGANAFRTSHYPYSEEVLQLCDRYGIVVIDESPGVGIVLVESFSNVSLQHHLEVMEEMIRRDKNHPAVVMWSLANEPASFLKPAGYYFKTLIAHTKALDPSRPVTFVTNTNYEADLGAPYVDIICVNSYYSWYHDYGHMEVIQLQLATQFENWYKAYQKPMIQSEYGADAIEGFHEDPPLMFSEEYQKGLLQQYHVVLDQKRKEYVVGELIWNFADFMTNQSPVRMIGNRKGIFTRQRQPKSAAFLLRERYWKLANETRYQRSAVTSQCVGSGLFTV
Method: as §1

[6] = molecular target: T4, α-N-Acetylgalactosaminidase (Chicken liver) (Gallus gallus, UniProt Q90744); assay: α-N-Acetylgalactosaminidase (chicken liver) inhibition
T4 construct: purchased Sigma-Aldrich Chemical Co; host or cells: chicken liver
T4 sequence (Q90744 1-405): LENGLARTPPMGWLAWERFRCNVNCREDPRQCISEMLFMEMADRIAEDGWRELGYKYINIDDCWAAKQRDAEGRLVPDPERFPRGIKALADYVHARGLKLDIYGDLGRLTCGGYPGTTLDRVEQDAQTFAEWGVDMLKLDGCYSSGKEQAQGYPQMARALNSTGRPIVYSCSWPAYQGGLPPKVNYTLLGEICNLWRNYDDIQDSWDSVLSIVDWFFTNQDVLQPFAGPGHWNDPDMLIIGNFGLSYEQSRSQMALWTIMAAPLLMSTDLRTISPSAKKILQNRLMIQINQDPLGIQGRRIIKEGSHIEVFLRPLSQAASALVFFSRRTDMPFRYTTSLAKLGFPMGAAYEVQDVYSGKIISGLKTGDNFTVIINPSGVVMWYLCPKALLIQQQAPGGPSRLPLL
Method: as §1

[7] = 1000 μM, read-out: Inhibition % at 1000 μM

Compound	IC50 [1]	Inhibition % at 1000 μM [1] [%]	inhibition at 1000 µM [2, 7] [%]	inhibition at 1000 µM ([2]; read-out: IC50) [%]	inhibition at 1000 µM [3, 7] [%]	inhibition at 1000 µM ([3]; read-out: IC50) [%]	IC50 [4]	Inhibition % at 1000 μM [4] [%]	inhibition at 1000 µM [5, 7] [%]	inhibition at 1000 µM ([5]; read-out: IC50) [%]	inhibition at 1000 µM [6, 7] [%]	inhibition at 1000 µM ([6]; read-out: IC50) [%]	IC50 (β-Glucosidase (Almond))	Inhibition % at 1000 μM (β-Glucosidase (Almond)) [%]	IC50 (β-Mannosidase (Snail))	Inhibition % at 1000 μM (β-Mannosidase (Snail)) [%]	IC50 (Rat intestinal maltase)	Inhibition % at 1000 μM (Rat intestinal maltase) [%]	other results
CC(=O)NC[C@H]1N[C@H](CO)[C@@H](O)[C@@H]1O [4·HCl, 1-N-acetylamino-2,5-imino-1,2,5-trideoxy-D-mannitol hydrochloride]	NI (No Inhibition (less than 50% at 1000 μM))	33.8	1.1	< 50	1.5	< 50	NI (No Inhibition (less than 50% at 1000 μM))	6.5	1.7	< 50	3.3	< 50							IC50 (Rat intestinal maltase; read-out: IC50): 211 µM; IC50 (β-Glucosidase (Almond); read-out: IC50): 170 µM; IC50 (β-Mannosidase (Snail); read-out: IC50): 296 µM
CC(=O)NC[C@@H]1N[C@@H](CO)[C@H](O)[C@H]1O [A-10, 1-N-acetylamino-2,5-imino-1,2,5-trideoxy-L-mannitol hydrochloride]	NI (No Inhibition (less than 50% at 1000 μM))	2.0	0	< 50	0	< 50	NI (No Inhibition (less than 50% at 1000 μM))	10.1	4.6	< 50	0	< 50	NI (No Inhibition (less than 50% at 1000 μM))	16.1	NI (No Inhibition (less than 50% at 1000 μM))	0			IC50 (Rat intestinal maltase; read-out: IC50): 92 µM
CC(=O)NC[C@@H]1N[C@@H](CO)[C@@H](O)[C@H]1O [C-10, 1-N-acetylamino-2,5-imino-1,2,5-trideoxy-L-altritol hydrochloride]	NI (No Inhibition (less than 50% at 1000 μM))	1.0	0.36	< 50	4.9	< 50	NI (No Inhibition (less than 50% at 1000 μM))	3.6	0	< 50	6.1	< 50	NI (No Inhibition (less than 50% at 1000 μM))	0	NI (No Inhibition (less than 50% at 1000 μM))	0	NI (No Inhibition (less than 50% at 1000 μM))	35.4	
CC(=O)NC[C@H]1N[C@H](CO)[C@H](O)[C@@H]1O [D-10, 1-N-acetylamino-2,5-imino-1,2,5-trideoxy-D-altritol hydrochloride]	NI (2.4%) (No Inhibition (less than 50% at 1000 μM))				1.7	< 50	NI (No Inhibition (less than 50% at 1000 μM))	8.3	1.3	< 50			NI (No Inhibition (less than 50% at 1000 μM))	41.0	NI (No Inhibition (less than 50% at 1000 μM))	0	NI (9.24%) (No Inhibition (less than 50% at 1000 μM))		IC50 [2]: 380 µM; IC50 [6]: 65.3 µM
CC(=O)NC[C@H]1N[C@@H](CO)[C@@H](O)[C@@H]1O [E-10a, 1-N-acetylamino-2,5-imino-1,2,5-trideoxy-D-glucitol hydrochloride]	NI (No Inhibition (less than 50% at 1000 μM))	4.1	0.36	< 50	41.7	< 50	NI (No Inhibition (less than 50% at 1000 μM))	11.8	0	< 50	1.4	< 50	NI (No Inhibition (less than 50% at 1000 μM))	37.9	NI (No Inhibition (less than 50% at 1000 μM))	25.8	NI (No Inhibition (less than 50% at 1000 μM))	12.7	
CC(=O)NC[C@@H]1N[C@@H](CO)[C@@H](O)[C@@H]1O [E-10b, 1-N-acetylamino-2,5-imino-1,2,5-trideoxy-L-iditol hydrochloride]	NI (No Inhibition (less than 50% at 1000 μM))	0	0	< 50	20.5	< 50	NI (No Inhibition (less than 50% at 1000 μM))	30.8	4.3	< 50	0.5	< 50	NI (No Inhibition (less than 50% at 1000 μM))	1.2	NI (No Inhibition (less than 50% at 1000 μM))	0	NI (No Inhibition (less than 50% at 1000 μM))	0	
CC(=O)NC[C@@H]1N[C@H](CO)[C@H](O)[C@H]1O [F-10a, 1-N-acetylamino-2,5-imino-1,2,5-trideoxy-L-glucitol hydrochloride]	NI (No Inhibition (less than 50% at 1000 μM))	0.3	0.36	< 50	8.4	< 50	NI (No Inhibition (less than 50% at 1000 μM))	5.3	0	< 50	0	< 50	NI (No Inhibition (less than 50% at 1000 μM))	11.6	NI (No Inhibition (less than 50% at 1000 μM))	3.23	NI (No Inhibition (less than 50% at 1000 μM))	14.6	
